According to ChEMBL document CHEMBL1127256, “Synthesis of C2-symmetric inhibitors of the HIV-1 protease, with N,N-substituted ethylenediamide and ethylenediamine linkers” (Bioorg Med Chem Lett, 1994):
Activity calls are given as the source filed them. No cut-off for these calls is given here.

What was measured:
[1] = molecular target: Human immunodeficiency virus type 1 protease (Human immunodeficiency virus 1) (UniProt Q72874); test: Percent inhibition of HIV-1 protease against substrate HKARVL-(NO2)F-EAnLSNH2 (test III) at a concentration of 10 e-5M; Inactive
[2] = molecular target: Human immunodeficiency virus type 1 protease (Human immunodeficiency virus 1) (UniProt Q72874); test: Percent inhibition of HIV-1 protease against substrate SQN-(pNO2)F-PIV (test II) at a concentration of 10 e-5M
[3] = molecular target: Human immunodeficiency virus type 1 protease (Human immunodeficiency virus 1) (UniProt Q72874); test: Percent inhibition of HIV-1 protease against substrate TLNFPIS-AMC (test I) at a concentration of 10 e-5M
[4] = molecular target: Human immunodeficiency virus type 1 protease (Human immunodeficiency virus 1) (UniProt Q72874); test: Percent inhibition of HIV-1 protease against substrate HKARVL-(NO2)F-EAnLSNH2 (test III) at a concentration of 10 e-5M
[5] = molecular target: Human immunodeficiency virus type 1 protease (Human immunodeficiency virus 1) (UniProt Q72874); test: Percent inhibition of HIV-1 protease against substrate SQN-(pNO2)F-PIV (test II) at a concentration of 10 e-5M; Inactive
[6] = molecular target: Human immunodeficiency virus type 1 protease (Human immunodeficiency virus 1) (UniProt Q72874); test: Percent inhibition of HIV-1 protease against substrate TLNFPIS-AMC (test I) at a concentration of 10 e-5M; Inactive
[7] = molecular target: Human immunodeficiency virus type 1 protease (Human immunodeficiency virus 1, UniProt Q72874); test: Inhibitory concentration against HIV-1 protease

| inhibition [1] | inhibition [2] [%] | inhibition [3] [%] | inhibition [4] [%] | inhibition [5] | inhibition [6] | SMILES | IC50 [7] [nM] |
| --- | --- | --- | --- | --- | --- | --- | --- |
| inactive | 3 | 3 | – | – | – | CC(C)[C@H](NC(=O)OCc1ccccc1)C(=O)N[C@@H](Cc1ccccc1)CN(C)CCN(C)C[C@H](Cc1ccccc1)NC(=O)[C@H](NC(=O)OCc1ccccc1)C(C)C | – |
| – | – | – | 25 | inactive | inactive | CC(C)[C@H](NC(=O)OCc1ccccc1)C(=O)N[C@@H](Cc1ccccc1)C(=O)NCCNC(=O)[C@H](Cc1ccccc1)NC(=O)[C@H](NC(=O)OCc1ccccc1)C(C)C | – |
| – | 30 | 8 | 9 | – | – | CC(C)[C@H](NC(=O)OCc1ccccc1)C(=O)N[C@@H](Cc1ccccc1)CN(CCO)CCN(CCO)C[C@H](Cc1ccccc1)NC(=O)[C@H](NC(=O)OCc1ccccc1)C(C)C | – |
| – | 53 | 36 | 33 | – | – | CC(C)[C@H](NC(=O)OCc1ccccc1)C(=O)N[C@@H](Cc1ccccc1)CN(CCN(CC(=O)O)C[C@H](Cc1ccccc1)NC(=O)[C@H](NC(=O)OCc1ccccc1)C(C)C)CC(=O)O | – |
| inactive | 3 | 3 | – | – | – | CC(C)[C@H](NC(=O)OCc1ccccc1)C(=O)N[C@@H](Cc1ccccc1)CN(CCN(C[C@H](Cc1ccccc1)NC(=O)[C@H](NC(=O)OCc1ccccc1)C(C)C)C(=O)OC(C)(C)C)C(=O)OC(C)(C)C | – |
| – | – | – | 16 | inactive | inactive | CC(C)[C@H](NC(=O)OCc1ccccc1)C(=O)N[C@@H](Cc1ccccc1)C(=O)N(C)CCN(C)C(=O)[C@H](Cc1ccccc1)NC(=O)[C@H](NC(=O)OCc1ccccc1)C(C)C | – |
| inactive | 3 | 3 | – | – | – | CC(C)[C@H](NC(=O)OCc1ccccc1)C(=O)N[C@H](CNCCNC[C@H](Cc1ccccc1)NC(=O)[C@H](NC(=O)OCc1ccccc1)C(C)C)Cc1ccccc1 | – |
| – | – | – | – | – | – | CC(C)[C@H](NC(=O)OCc1ccccc1)C(=O)N[C@@H](Cc1ccccc1)[C@@H](O)[C@H](O)[C@H](Cc1ccccc1)NC(=O)[C@H](NC(=O)OCc1ccccc1)C(C)C | < 1 |
